Laboratory results from ChEMBL document CHEMBL1201862, “PubChem BioAssay data set” (2004).
Active and inactive are the calls of the source.

Legend:
[1] = target: T1, Ubiquitin-conjugating enzyme E2 N (Homo sapiens, UniProt P61088); assay type: functional;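 further: Dose-response confirmation in a TR-FRET assay detecting UBC13-driven polyubiquitin chain formation, inhibition measured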
T1 sequence (P61088 whole entry): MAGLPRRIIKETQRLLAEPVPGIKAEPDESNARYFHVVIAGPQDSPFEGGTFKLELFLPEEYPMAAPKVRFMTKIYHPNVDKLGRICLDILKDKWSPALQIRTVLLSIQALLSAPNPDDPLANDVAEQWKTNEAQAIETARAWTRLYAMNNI

Cytochrome P450 2C9 = Cytochrome P450 2C9 (Homo sapiens, UniProt P11712)
Sequence of Cytochrome P450 2C9 (P11712 whole entry): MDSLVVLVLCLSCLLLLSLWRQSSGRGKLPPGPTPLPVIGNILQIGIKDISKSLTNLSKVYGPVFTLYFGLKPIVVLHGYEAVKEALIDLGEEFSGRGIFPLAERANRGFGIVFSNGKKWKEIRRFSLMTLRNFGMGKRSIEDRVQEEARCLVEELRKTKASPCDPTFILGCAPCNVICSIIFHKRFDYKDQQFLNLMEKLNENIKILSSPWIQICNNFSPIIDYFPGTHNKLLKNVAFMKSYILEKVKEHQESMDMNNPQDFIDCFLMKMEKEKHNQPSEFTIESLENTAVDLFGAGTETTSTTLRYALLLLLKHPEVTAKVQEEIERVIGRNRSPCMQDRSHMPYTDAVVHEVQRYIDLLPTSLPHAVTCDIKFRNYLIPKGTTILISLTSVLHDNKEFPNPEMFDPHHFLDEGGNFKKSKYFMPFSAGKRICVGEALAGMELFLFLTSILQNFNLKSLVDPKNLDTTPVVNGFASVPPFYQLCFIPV

Cytochrome P450 2D6 = Cytochrome P450 2D6 (Homo sapiens, UniProt P10635);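 further: CYP2D6 member of a cytochrome P450 panel assay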
Sequence of Cytochrome P450 2D6 (P10635 whole entry): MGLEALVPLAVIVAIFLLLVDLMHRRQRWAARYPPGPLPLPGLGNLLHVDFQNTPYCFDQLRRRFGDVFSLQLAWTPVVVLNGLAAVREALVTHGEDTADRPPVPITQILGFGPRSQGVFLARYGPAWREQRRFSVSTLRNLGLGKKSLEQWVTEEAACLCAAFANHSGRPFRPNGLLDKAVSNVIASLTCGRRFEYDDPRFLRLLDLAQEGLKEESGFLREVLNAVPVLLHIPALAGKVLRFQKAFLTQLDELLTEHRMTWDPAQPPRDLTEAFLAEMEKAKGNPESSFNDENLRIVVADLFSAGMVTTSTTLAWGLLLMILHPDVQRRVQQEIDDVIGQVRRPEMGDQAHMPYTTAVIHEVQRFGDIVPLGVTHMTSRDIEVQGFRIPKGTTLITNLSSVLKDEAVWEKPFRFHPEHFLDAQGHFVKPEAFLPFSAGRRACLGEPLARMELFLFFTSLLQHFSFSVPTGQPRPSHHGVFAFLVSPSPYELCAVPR

[2] = target: Voltage-dependent T-type calcium channel subunit alpha-1H (Homo sapiens, UniProt O95180); assay type: functional;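 further: channel activity triggered by adding a high calcium stimulation buffer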
Sequence of Voltage-dependent T-type calcium channel subunit alpha-1H (O95180 whole entry): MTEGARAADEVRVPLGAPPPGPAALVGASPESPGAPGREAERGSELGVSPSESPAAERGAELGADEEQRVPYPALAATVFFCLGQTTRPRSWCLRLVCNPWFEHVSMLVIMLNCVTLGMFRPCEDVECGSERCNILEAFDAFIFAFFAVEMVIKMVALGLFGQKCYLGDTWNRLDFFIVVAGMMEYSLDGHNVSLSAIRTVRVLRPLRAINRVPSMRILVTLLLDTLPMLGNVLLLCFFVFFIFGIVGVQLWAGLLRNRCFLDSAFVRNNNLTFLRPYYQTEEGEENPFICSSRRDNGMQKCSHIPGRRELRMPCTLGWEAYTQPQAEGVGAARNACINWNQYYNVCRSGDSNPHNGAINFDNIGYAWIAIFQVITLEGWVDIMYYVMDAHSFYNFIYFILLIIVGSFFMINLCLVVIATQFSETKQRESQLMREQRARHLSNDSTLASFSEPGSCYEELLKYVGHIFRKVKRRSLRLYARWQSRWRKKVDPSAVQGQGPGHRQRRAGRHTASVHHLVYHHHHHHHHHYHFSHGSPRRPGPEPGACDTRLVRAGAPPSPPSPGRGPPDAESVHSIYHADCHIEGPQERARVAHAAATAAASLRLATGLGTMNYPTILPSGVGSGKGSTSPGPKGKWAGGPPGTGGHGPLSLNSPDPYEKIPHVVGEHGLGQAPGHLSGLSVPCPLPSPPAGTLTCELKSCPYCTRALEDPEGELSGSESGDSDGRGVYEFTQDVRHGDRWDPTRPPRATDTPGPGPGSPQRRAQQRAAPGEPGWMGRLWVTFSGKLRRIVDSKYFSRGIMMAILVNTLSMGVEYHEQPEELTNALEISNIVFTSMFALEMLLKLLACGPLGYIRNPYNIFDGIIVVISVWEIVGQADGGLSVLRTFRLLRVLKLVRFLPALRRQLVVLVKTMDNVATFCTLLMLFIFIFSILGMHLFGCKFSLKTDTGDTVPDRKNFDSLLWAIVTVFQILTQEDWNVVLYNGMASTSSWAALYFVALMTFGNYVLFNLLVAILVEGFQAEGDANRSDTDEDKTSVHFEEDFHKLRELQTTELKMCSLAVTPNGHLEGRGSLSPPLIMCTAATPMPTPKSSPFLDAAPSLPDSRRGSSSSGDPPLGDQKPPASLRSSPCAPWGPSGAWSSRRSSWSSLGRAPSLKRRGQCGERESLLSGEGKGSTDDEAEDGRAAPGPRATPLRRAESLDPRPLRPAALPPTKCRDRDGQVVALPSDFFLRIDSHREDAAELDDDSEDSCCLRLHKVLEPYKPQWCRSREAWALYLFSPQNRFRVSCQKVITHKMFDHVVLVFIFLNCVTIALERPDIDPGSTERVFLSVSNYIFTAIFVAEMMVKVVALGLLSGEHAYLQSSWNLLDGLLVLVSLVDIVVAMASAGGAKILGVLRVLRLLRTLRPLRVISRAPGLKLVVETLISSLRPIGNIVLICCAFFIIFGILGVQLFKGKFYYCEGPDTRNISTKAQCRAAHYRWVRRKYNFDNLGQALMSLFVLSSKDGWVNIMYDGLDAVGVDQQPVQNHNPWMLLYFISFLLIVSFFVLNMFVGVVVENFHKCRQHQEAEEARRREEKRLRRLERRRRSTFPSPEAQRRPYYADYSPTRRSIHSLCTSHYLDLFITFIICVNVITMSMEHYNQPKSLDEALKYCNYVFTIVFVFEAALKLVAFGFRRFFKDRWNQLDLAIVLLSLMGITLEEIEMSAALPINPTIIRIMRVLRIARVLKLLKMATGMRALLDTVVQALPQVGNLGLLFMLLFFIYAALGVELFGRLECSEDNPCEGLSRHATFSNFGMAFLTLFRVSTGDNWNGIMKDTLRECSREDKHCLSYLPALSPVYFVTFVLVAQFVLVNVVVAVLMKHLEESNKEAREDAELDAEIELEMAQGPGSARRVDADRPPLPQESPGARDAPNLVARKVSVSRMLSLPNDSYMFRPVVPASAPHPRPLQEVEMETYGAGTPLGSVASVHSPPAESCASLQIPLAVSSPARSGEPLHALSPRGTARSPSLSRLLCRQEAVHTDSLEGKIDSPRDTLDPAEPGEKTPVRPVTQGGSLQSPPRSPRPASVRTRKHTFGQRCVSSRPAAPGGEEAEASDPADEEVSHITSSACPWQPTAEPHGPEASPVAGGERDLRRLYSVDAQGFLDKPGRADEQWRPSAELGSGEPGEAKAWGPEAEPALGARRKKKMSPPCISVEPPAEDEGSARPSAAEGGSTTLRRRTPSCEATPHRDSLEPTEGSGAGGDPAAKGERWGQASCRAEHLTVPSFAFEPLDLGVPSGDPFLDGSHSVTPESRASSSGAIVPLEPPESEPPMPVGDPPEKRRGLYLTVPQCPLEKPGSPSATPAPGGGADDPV

[3] = target: Heat shock protein HSP 90-alpha (Homo sapiens, UniProt P07900); assay type: functional, organism-based
Cytochrome P450 1A2 = target: T2, Cytochrome P450 1A2 (Homo sapiens, UniProt P05177);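 further: PubChem cytochrome P450 panel assay, CYP1A2 panel member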
T2 sequence (P05177 whole entry): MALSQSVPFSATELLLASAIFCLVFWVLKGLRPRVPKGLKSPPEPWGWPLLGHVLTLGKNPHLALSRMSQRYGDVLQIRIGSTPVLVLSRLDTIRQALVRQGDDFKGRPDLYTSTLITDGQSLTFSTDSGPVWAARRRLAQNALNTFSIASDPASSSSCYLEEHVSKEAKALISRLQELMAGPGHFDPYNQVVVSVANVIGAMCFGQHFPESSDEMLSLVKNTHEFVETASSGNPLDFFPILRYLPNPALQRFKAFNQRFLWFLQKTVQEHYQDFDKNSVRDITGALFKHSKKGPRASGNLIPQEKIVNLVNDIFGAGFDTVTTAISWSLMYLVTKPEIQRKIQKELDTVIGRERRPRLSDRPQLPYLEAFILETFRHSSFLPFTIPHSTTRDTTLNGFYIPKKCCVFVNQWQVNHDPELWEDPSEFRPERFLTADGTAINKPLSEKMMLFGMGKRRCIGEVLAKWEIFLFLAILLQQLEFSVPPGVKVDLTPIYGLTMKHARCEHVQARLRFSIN

[4] = blockers of HIV-1 envelope-mediated cell-cell fusion – cherry-pick, dose response (AID 652057); assay type: functional, cell-based
[5] = HIV-1 AD8 envelope cell-cell fusion blockers – cherry-pick, dose response (AID 652062); assay type: functional, cell-based;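 further: luciferase signal from cell-cell fusion driven by HIV-1 clade B AD8 Env; potency is for inhibitors of fusion seen as a drop in luminescence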
Cytochrome P450 2C19 = Cytochrome P450 2C19 (Homo sapiens, UniProt P33261); test: Cytochrome panel assay with activity outcomes. Panel member name: p450-cyp2c19 Compounds with AC50 equal or less than 10 uM are considered active; assay type: functional; settings: read-out: AC50
[6] = NIH3T3 cell viability loss – ATP luminescence, mouse fibroblasts, counter-screen, dose response (AID 2010); assay type: functional, cell-based;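 further: cells exposed to compound for about 90 hours before reading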
[7] = Trypanosoma cruzi growth suppression in host cells – NIH3T3 host cells, beta-gal luminescence, confirmation (AID 2044); assay type: functional, cell-based;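 further: intracellular parasites grown in NIH/3T3 mouse fibroblasts as host cells; luminescent beta-galactosidase reporter signal from transgenic T. cruzi replicating inside host cells; inhibitors lower the luminescence signal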
[8] = NIH-3T3 fibroblast cytotoxicity, dose response, cytotoxicity control, cell-based, fluorescence, Alamar Blue, secondary assay (AID 2327); assay type: functional;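 further: NIH-3T3 mouse fibroblasts cultured with fluconazole at 8 µg/mL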
[9] = target: T3, High affinity choline transporter 1 (Homo sapiens, UniProt Q9GZV3); test: human choline transporter blockers, potency – cell-based, 5-point CRC, membrane potential dye, dose response (AID 504840); assay type: functional
T3 sequence (Q9GZV3 whole entry): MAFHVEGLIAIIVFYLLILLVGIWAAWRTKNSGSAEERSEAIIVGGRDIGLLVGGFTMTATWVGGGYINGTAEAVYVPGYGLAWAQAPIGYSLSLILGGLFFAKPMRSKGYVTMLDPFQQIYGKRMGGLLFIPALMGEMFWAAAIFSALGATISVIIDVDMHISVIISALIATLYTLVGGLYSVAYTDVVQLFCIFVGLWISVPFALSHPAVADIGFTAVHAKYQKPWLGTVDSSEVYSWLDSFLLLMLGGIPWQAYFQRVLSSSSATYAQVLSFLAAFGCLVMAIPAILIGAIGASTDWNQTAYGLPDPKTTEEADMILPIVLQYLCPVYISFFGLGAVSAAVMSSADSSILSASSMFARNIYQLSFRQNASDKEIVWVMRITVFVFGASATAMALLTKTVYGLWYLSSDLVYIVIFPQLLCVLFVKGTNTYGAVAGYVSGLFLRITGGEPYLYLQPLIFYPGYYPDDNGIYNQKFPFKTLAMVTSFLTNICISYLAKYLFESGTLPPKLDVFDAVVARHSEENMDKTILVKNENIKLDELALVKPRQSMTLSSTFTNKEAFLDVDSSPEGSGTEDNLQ

[10] = Luminescence Cell-Based Dose Retest to Confirm Inhibitors of Cancer Stem Cells. [Related pubchem assays (depositor defined):AID2717, AID2721]; assay type: functional; settings: Homo sapiens
[11] = fluconazole-exposed Candida albicans growth modulators – fluorescence, retest, confirmation (AID 2467); assay type: functional, cell-based
Protein RecA = target: T4, Protein RecA (Mycobacterium tuberculosis, UniProt P9WHJ3); test: Fluorescence Cell-Free Homogeneous Dose Retest to Identify Inhibitors of RecA-Intein Splicing Activity. [Related pubchem assays (depositor defined):AID2097, AID2223, AID489010, AID492950]; assay type: functional
T4 sequence (P9WHJ3 whole entry): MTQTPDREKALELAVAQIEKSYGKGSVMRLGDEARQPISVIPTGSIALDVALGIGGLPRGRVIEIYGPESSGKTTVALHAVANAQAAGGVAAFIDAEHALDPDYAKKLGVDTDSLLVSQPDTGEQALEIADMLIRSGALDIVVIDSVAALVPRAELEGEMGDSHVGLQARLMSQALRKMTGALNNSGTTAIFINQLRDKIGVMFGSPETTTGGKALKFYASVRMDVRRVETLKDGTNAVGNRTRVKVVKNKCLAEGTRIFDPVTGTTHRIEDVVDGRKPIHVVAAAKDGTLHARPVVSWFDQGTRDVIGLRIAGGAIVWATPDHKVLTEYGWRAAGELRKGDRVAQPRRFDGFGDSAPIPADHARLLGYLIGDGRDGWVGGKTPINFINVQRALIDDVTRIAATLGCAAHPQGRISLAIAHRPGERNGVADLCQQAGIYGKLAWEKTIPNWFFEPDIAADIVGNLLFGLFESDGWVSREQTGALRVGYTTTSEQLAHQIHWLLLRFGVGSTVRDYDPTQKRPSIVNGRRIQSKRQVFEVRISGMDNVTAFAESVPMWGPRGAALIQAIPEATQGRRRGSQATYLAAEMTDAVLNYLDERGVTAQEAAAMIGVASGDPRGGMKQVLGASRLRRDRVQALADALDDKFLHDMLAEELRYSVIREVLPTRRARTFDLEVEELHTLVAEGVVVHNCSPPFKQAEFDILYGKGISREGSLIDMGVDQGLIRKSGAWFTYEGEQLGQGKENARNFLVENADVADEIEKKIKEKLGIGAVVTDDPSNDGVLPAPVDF

[12] = target: T5, Replicative DNA helicase DnaB (Mycobacterium tuberculosis, UniProt P9WMR3); test: DnaB intein splicing inhibitors, dose response, biochemical, cell-free fluorescence (AID 449749); assay type: functional
T5 sequence (P9WMR3 whole entry): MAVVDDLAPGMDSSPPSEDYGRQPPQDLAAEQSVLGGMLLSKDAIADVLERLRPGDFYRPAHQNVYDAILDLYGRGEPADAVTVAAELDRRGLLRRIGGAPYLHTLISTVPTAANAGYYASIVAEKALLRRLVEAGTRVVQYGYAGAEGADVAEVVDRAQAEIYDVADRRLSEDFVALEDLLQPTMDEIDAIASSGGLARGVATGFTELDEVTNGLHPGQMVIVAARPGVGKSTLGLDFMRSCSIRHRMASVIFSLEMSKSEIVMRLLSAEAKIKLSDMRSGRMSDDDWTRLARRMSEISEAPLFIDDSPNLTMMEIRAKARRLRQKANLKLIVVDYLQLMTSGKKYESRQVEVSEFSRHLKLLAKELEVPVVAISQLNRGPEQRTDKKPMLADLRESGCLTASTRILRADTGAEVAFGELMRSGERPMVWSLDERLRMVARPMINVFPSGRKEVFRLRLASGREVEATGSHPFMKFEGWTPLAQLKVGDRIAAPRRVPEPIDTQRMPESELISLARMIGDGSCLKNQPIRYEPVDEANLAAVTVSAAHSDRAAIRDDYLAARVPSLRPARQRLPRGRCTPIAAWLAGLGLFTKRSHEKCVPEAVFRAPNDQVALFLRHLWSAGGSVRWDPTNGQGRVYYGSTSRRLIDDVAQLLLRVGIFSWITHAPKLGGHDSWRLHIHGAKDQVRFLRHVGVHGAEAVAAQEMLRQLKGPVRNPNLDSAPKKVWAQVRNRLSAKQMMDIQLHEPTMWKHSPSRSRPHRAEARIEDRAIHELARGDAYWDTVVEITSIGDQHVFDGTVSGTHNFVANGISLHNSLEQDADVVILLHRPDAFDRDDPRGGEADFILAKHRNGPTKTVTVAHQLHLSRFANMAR

[13] = target: T6, Polyadenylate-binding protein 1 (Homo sapiens, UniProt P11940); test: MLLE domain peptide-binding blockers, IC50 – biochemical, fluorescence polarization, FITC-PAM2 peptide, dose response (AID 602259); assay type: functional; settings: read-out: IC50_Mean
T6 sequence (P11940 whole entry, the tested form may be a part): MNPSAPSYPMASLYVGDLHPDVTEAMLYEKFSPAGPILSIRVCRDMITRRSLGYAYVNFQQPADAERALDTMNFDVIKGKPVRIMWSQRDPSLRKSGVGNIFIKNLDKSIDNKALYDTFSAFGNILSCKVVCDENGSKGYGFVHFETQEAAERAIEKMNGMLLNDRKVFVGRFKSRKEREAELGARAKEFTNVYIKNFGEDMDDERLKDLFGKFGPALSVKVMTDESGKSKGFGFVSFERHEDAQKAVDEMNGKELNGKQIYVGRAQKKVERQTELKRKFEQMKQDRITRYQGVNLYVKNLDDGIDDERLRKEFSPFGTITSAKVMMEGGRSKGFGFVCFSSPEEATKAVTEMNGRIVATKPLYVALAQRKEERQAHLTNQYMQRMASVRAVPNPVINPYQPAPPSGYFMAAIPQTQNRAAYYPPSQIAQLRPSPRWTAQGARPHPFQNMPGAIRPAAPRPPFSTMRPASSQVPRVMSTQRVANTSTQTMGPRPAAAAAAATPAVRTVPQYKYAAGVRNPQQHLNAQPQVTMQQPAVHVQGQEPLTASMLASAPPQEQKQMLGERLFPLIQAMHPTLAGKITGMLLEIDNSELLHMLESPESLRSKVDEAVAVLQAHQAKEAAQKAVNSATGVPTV

[14] = target: T6, Polyadenylate-binding protein 1; test: MLLE binding blockers, Cy5 peptide tracer – biochemical, fluorescence polarization, Cy5-PAM2 peptide, secondary, miRNA deadenylation inhibitor project, dose response (AID 602260); assay type: functional; settings: read-out: IC50_Mean
[15] = viability of PTEN-deleted HCT116 cells – cell-based, HCT116 PTEN knockout, dose response (AID 1047); assay type: functional;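 further: HCT116 colon tumor cells with PTEN knocked out; cells exposed to compound for 60 hours before readout; potency for loss of cell viability measured by luminescence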
[16] = viability of HCT116 lacking mutant beta-catenin – cell-based, human colon tumor, dose response (AID 1045); assay type: functional;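 further: HCT116 colon tumor cells with beta catenin knocked out; cells exposed to compound for 60 hours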
[17] = test system: Streptococcus sp. 'group A'; test: Streptococcus pyogenes SK(-)GAS viability under kanamycin – luminescence, BacTiterGlo, confirmation, counter-screen for streptokinase expression inhibitor project, dose response (AID 1900); assay type: functional, organism-based
Streptococcus = test: GAS UMAA2166 growth inhibition – luminescence, BacTiterGlo, counter-screen for streptokinase expression inhibitor project, dose response (AID 1915); assay type: functional, organism-based;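 further: potency for reduction of bacterial viability or growth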
INS1 = test: INS-1E survival protection against cytokine death – cell-based, luminescence, retest, dose response (AID 449756); assay type: functional; settings: Rattus norvegicus;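 further: cell death triggered by IL-1 beta plus TNF-alpha plus IFN-gamma mixture; protective hits raise ATP signal compared with cytokine alone wells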
Large T antigen = Large T antigen (Simian virus 40, UniProt P03070); assay type: functional, Betapolyomavirus macacae;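 further: Confirmatory-stage PubChem screen for compounds that inhibit SV40 T antigen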
Sequence of Large T antigen (P03070 whole entry): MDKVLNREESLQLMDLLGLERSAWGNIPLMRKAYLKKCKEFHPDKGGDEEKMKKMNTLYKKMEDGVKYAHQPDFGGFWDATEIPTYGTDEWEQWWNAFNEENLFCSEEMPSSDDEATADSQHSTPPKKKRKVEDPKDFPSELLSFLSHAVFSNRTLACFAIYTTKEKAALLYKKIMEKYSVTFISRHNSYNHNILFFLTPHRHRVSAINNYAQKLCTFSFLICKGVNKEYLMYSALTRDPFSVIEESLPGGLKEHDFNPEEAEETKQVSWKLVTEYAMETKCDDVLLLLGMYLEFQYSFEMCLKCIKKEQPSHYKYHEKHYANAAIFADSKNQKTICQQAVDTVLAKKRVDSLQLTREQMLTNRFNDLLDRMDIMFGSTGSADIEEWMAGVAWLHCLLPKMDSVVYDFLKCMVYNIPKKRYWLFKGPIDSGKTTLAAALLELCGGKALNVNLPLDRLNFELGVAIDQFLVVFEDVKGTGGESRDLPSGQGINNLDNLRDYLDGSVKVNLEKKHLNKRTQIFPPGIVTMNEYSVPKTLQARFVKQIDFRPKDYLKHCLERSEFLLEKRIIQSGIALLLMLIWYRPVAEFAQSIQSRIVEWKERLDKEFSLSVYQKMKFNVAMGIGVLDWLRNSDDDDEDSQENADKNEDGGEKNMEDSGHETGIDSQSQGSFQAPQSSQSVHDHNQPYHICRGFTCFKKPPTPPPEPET

COc1ccc(C(CNC(=O)c2cc3c(s2)CCC(C)C3)N2CCCC2)cc1 (stereo not given)
IC50 [1]: > 20 µM (inactive)

COC(=O)c1c(NC(=O)c2nc3ccccc3s2)sc2c1CCN(C(C)=O)C2
IC50 [1]: > 20 µM (inactive)

Cc1cnc(CNc2ccnc(-c3cccnc3)n2)cn1
AC50 (Cytochrome P450 2C9): inconclusive | AC50 (Cytochrome P450 2D6): 25.1 µM (inconclusive)

Cc1ccc(-c2nnc(CSc3nnc(COc4ccccc4)n3-c3ccccc3)o2)cc1
EC50 [2]: 3.32 µM (active)

Nc1ccc(S(=O)(=O)Nc2nccs2)cc1 [SULFATHIAZOLE]
AC50 (Cytochrome P450 2C9): inconclusive

CN(C)/C=C/C(=O)c1ccc2noc(-c3cccc(F)c3)c2c1
AC50 [3]: 7.95 µM (active)

Cc1ccc(S(=O)(=O)N[C@H]2COC(=O)C/C=C\[C@@H](C)COC(=O)C/C=C\[C@@H]2C)cc1
AC50 (Cytochrome P450 2C9): inconclusive

CN1CCN(c2ncc3nc(-c4cc(F)cc(F)c4)c(=O)n(C)c3n2)CC1
AC50 (Cytochrome P450 2C9): inconclusive | AC50 (Cytochrome P450 1A2): 5.01 µM (inconclusive)

Cc1cc(C)cc(NC(=O)CCc2nc3ccccc3[nH]2)c1
AC50 (Cytochrome P450 2C9): inconclusive | AC50 (Cytochrome P450 1A2): 3.16 µM (inconclusive)

Cc1cc(N2CCN(C(=O)c3ccco3)CC2)n2ncc(-c3ccccc3)c2n1
AC50 [3]: 2.23 µM (active)

O=c1c2ccccc2nnn1CSc1nnc(COc2ccc(Cl)cc2)n1Cc1ccco1
AC50 [4]: 15.2 µM (active) | AC50 [3]: 3.26 µM (active) | AC50 [5]: 1.12 µM (active)

C/C(=N\OC(=O)c1cccc(C)c1)c1sc(-c2ccccc2)nc1C
AC50 (Cytochrome P450 2C9): inconclusive | AC50 (Cytochrome P450 2C19): 8.91 µM (inconclusive)

CC1CCCCN1CCNC(=O)c1ccc2c(=O)n(Cc3ccc(Cl)cc3)c(=S)[nH]c2c1 (stereo not given)
IC50 [1]: > 20 µM (inactive)

CCC(c1nnnn1C(C)(C)C)N1CCN(c2cc(Cl)ccc2C)CC1 (stereo not given)
EC50 [2]: 5.94 µM (active)

Cc1ccc(C(c2nnnn2C(C)(C)C)N(Cc2ccco2)Cc2cccs2)cc1 (stereo not given)
EC50 [6]: > 30 µM (not active) | EC50 [2]: 6.33 µM (active) | EC50 [7]: 2.26 µM (active)

O=c1oc2ccccc2c(O)c1Cc1cc(Cl)c2cccnc2c1O
EC50 [8]: 76.3 µM (active) | IC50 [9]: 15.2 µM (active) | AC50 [10]: 1.09 µM (active) | EC50 [11]: > 38 µM (not active) | AC50 [3]: 7.2 µM (active)

CC(C)[C@@H]1CN=C(N)N1C[C@@H]1CCCN1C[C@H](C)N1C[C@@H](Cc2ccccc2)N(CCc2ccc(Cl)c(Cl)c2)C1=N
IC50 [1]: > 20 µM (inactive)

COc1ccccc1N1CCN(CC(=O)c2c(C)[nH]c3cc(C)ccc23)CC1
EC50 (Protein RecA): 94.2 µM (active) | EC50 [2]: 5.63 µM (active) | AC50 [12]: 5.47 µM (active)

COc1ccc(Sc2nnc(Cc3ccccc3)c3ccccc23)cc1
IC50 [13]: > 66 µM (inactive) | IC50 [14]: > 66 µM (inactive)

COc1cc(CNCCc2c[nH]c3ccccc23)ccc1OCc1ccccc1F
IC50 [1]: > 20 µM (inactive) | AC50 [10]: 4.72 µM (active) | EC50 [15]: 15.3 µM (active) | EC50 [6]: > 60 µM (inconclusive) | EC50 [7]: 0.196 µM (active) | EC50 [16]: 13.6 µM (active)

CCN1CCN(C(c2ccc(C(F)(F)F)cc2)c2ccc3cccnc3c2O)CC1 (stereo not given)
EC50 [17]: 3.02 µM (active) | IC50 [13]: > 66 µM (inactive) | EC50 (Streptococcus): 3.5 µM (active) | IC50 [14]: > 66 µM (inactive) | AC50 [3]: 1.36 µM (active) | AC50 (INS1): 2.15 µM (active)

O=C1C=CC(=O)N1c1ccc(O)cc1
IC50 (Large T antigen): 81 µM (active) | AC50 [3]: 3.13 µM (active)

COc1ccccc1N1CCN(C(c2ccccc2Cl)c2nnnn2C(C)(C)C)CC1 (stereo not given)
EC50 [2]: 11.7 µM (active)

CCN(CC)c1ccc(/C=C2/C(=O)NC(=O)N(CC3CCCO3)C2=O)cc1 (stereo not given)
AC50 (Cytochrome P450 2C9): inconclusive
